Read-outs that look alike come from different tables or passages of the source.
Columns and labels:
[1] = female, 129sv DHP-1 knockout, mouse, in vivo
[2] = Stability in simulated gastric fluid (SGF); conditions: simulated gastric fluid (SGF), pH 1.2
[3] = In vitro plasma stability, SD rat plasma; conditions: SD, rat, plasma, Plasma stability % Remaining, 37 °C, time point 120 min
[4] = In vitro plasma stability, beagle dog plasma; conditions: beagle, dog, plasma
[5] = test system: Caco-2 cells; experiment: Caco-2 permeability / efflux transporter substrate; conditions: Caco-2
[6] = Caco-2 permeability / efflux transporter substrate; conditions: human
[7] = in vivo; conditions: female, 129sv DHP-1 knockout, mouse, sc
[8] = test system: wild-type Mtb H37Rv; format: in vivo, 129sv DHP-1 knockout mice; conditions: for Log10 CFU per mouse (lungs), Mean: days 9-15, lungs day 16, untreated day 16 mean 9.1
[9] = Stability in fasted simulated intestinal fluid (FaSSIF); conditions: fasted simulated intestinal fluid (FaSSIF), pH 6.5, FaSSIF Stability, % remaining, pH 6.5, room temperature
[10] = In vitro plasma stability, human plasma; conditions: human, plasma, Plasma stability % Remaining, 37 °C, time point 120 min
[11] = test system: Mtb ΔpanCDΔlysA; format: cell-based, Mycobacterium tuberculosis; conditions: MIC90 in presence vs absence of 4 μg/mL clavulanate, replicating Mtb
[12] = In vitro plasma stability, CD-1 mouse plasma; conditions: male, CD-1, mouse, plasma, Plasma stability % Remaining, Mouse, 37 °C, time point 120 min
[13] = In vitro plasma stability, cynomolgus monkey plasma; conditions: monkey, plasma

With `C[C@@H](O)[C@H]1C(=O)N2C(C(=O)O)=C(S[C@@H]3CN[C@H](C(=O)N(C)C)C3)[C@H](C)[C@H]12` [Meropenem, reference compound] the Tlast [1] was 1.0 h, the remaining at 1 h, 10 μM [2] was 111% and the remaining at 24 h, 10 μM [2] was 100%. For the same molecule, the remaining at 2 h, 2 μM [3] was 57.7%, the remaining at 2 h, 2 μM [4] was 75.2% and the “Caco-2 Rank Papp” value [5] was “Low”. The Papp A→B at 120 min, 3 μM ([6]; Caco-2, pH 7.4) was < 0.26 ×10⁻⁶ cm/s, the Papp B→A at 120 min, 3 μM ([6]; Caco-2, pH 7.4) was < 0.24 ×10⁻⁶ cm/s and the recovery at 120 min, 3 μM ([6]; Caco-2, pH 7.4, Caco-2 Mean Recovery % A to B) was < 91%. For the same molecule, the recovery at 120 min, 3 μM ([6]; Caco-2, pH 7.4, Caco-2 Mean Recovery % B to A) was < 94.2%, the AUC(0-t) ([7]; 50 mg/kg) was 387 ng·h/mL and the Cmax ([7]; 50 mg/kg) was 724 ng/mL. It also gave a Tmax ([7]; 50 mg/kg) of 30 min, an AUC(0-t) ([7]; 300 mg/kg) of 2000 ng·h/mL and a Cmax ([7]; 300 mg/kg) of 3340 ng/mL. For the same molecule, the Tmax ([7]; 300 mg/kg) was 30 min, the “Log10 CFU per mouse (lungs), Mean” value ([8]; 50 mg/kg sc bid + clavulanate 100 mg/kg po bid) was 7.6 Log10 CFU and the “Log10 CFU per mouse (lungs), Mean” value ([8]; 300 mg/kg sc bid + clavulanate 100 mg/kg po bid) was 7.1 Log10 CFU. For the same molecule, the “effect on lung CFU (in words)” value ([8]; mouse, in vivo) was “bacteriostatic impact”, the remaining at 6 h, 10 μM ([9]; 6h) was 94.1% and the remaining at 24 h, 10 μM ([9]; 24h) was 76.8%. For the same molecule, the remaining at 2 h, 2 μM [10] was 70.6%, the “clavulanate shift of MIC90” value [11] was ~8 fold and the remaining at 2 h, 2 μM [12] was 74.7%. It also gave a remaining at 2 h, 2 μM [13] of 99.9%.

— paper PMC8922279, “Identification of β-Lactams Active against Mycobacterium tuberculosis by a Consortium of Pharmaceutical Companies and Academic Institutions” (ACS Infectious Diseases, 2022)
